Measurements from publication PMC12372887, “Mechanism and cellular actions of the potent AMPK inhibitor BAY-3827” (Science Advances, 2025).

What was measured:
Type in all cases: biochemical
CaMKK2 = biological target: T1, CaMKK2 (Homo sapiens, UniProt Q96RR4); experiment: Cell-free CaMKK2 kinase assay (CaMKKtide); settings: increasing concentrations, 0 to 1 μM
T1 construct: made in house; host or cells: HEK293 (transient transfection, anti-FLAG immunoprecipitate)
Description: Heterotrimeric human AMPK FLAG- α1β1γ1, FLAG- α2β1γ1, and FLAG- α2β2γ1, as well as human FLAG-CaMKK2 and FLAG-ULK1, were produced in mammalian HEK293 cells as described ([66], [67]). For AMPK expression, the cells were triply transfected at 60% confluency using FuGene HD (Roche Applied Science) and 1 μg of pcDNA3 plasmid expression constructs for AMPK Flag-α1, β1-Myc, β2-Myc, and HA-γ1. For CaMKK2 expression, the cells were transfected with 1 μg of pcDNA3 Flag-CaMKK2 plasmid. For ULK1 expression, the cells were transfected with […] of pcDNA3 FLAG-ULK1 plasmid. After 48 hours, the transfected cells were harvested by rinsing with ice-cold PBS, followed by rapid lysis using 500 μl of lysis buffer. AMPK, CaMKK2, and ULK1 kinase activities were determined by phosphorylation of synthetic peptide substrates: SAMS (HMRSAMSGLHLVKRR), CaMKKtide ([…]), and S108tide. (KLPLTRSHNNFVARRR), respectively. Briefly, recombinant AMPK, CaMKK2, or ULK1 were immunoprecipitated from 10 μg of transfected cultured cell lysate using 10 μl of anti-FLAG M2 agarose beads [50% (v/v)] […] Radioactivity was quantified by liquid scintillation counting. […]

SRPK1 = SRPK1 (Homo sapiens, UniProt Q96SB4); experiment: Kinase panel (140 human kinases)
Chain of SRPK1 (Q96SB4 whole entry): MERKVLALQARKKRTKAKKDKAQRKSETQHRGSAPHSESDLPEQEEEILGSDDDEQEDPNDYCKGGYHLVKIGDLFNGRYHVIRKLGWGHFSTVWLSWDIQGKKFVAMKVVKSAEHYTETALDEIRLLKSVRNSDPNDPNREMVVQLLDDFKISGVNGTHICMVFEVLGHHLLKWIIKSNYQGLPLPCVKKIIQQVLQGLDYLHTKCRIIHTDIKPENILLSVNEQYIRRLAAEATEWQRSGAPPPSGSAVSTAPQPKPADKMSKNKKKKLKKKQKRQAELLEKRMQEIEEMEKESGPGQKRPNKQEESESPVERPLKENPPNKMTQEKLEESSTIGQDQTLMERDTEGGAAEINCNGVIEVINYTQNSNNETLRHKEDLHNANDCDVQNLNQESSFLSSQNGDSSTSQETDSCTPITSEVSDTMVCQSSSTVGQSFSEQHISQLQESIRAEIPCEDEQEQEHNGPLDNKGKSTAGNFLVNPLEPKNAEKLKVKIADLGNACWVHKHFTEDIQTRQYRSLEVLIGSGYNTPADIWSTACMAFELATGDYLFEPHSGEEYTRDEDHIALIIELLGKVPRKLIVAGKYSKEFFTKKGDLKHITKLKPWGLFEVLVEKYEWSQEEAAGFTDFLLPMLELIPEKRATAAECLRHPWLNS
Procedure, shortened: (§1)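 Duplicate radiometric filter-binding measurements with [γ-^33P]ATP gave percent residual activity, mean and SD. Tested concentrations: 0.1 μM and, for BAY-3827, 1 μM. ATP set per kinase to 5, 20 or 50 μM, not above Km.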

PAK5 = PAK5 (Homo sapiens, UniProt Q9P286); experiment: Kinase panel (140 human kinases)
Procedure, shortened: as §1

MKK2 = MKK2 (Homo sapiens, UniProt P36507); experiment: Kinase panel (140 human kinases)
Chain of MKK2 (P36507 whole entry): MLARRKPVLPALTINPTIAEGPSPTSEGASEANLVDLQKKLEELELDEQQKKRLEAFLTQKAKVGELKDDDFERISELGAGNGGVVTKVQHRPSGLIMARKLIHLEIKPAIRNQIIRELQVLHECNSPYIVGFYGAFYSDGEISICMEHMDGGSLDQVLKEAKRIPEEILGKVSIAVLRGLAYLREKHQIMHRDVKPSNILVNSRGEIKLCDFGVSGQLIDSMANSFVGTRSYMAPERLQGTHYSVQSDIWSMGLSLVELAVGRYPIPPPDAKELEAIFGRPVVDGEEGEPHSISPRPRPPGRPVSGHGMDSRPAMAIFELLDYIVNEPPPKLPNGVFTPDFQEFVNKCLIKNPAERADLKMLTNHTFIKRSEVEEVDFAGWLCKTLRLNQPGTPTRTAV
Procedure, shortened: as §1

MAPKAP-K2 = MAPKAP-K2 (Homo sapiens, UniProt P49137); experiment: Kinase panel (140 human kinases)
Procedure, shortened: as §1

EPH-B3 = EPH-B3 (Homo sapiens, UniProt P54753); experiment: Kinase panel (140 human kinases)
Procedure, shortened: as §1

PDGFRA = PDGFRA (Homo sapiens, UniProt P16234); experiment: Kinase panel (140 human kinases)
Chain of PDGFRA (P16234 24-1089): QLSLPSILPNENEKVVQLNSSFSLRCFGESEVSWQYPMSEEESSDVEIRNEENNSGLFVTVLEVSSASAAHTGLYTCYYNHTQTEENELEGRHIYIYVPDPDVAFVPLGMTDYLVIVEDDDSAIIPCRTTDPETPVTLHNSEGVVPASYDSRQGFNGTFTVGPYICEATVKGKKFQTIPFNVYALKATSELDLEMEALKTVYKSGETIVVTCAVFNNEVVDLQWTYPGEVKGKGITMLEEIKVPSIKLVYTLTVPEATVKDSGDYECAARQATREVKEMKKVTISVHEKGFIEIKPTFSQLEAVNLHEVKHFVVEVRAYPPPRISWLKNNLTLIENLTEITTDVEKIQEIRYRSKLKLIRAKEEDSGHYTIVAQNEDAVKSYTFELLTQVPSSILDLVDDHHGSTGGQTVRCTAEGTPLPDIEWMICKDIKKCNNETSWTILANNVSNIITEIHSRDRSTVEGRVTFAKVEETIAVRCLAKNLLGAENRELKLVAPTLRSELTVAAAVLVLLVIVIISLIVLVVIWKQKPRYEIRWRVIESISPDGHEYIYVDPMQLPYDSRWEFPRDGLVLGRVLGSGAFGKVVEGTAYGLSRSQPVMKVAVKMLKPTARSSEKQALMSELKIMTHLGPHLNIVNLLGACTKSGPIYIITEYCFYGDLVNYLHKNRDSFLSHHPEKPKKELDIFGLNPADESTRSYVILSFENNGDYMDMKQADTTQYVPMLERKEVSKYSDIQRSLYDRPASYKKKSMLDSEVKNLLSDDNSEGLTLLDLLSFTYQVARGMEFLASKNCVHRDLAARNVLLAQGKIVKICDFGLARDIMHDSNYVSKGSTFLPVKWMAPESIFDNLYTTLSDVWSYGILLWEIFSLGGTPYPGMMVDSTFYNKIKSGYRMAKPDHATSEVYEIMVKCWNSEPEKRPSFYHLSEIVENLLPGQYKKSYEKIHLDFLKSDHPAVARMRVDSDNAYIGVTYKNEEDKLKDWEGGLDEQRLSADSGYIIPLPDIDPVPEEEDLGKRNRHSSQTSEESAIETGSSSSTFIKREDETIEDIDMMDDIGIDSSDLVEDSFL
Procedure, shortened: as §1

EIF2AK3 = EIF2AK3 (Homo sapiens, UniProt Q9NZJ5); experiment: Kinase panel (140 human kinases)
Procedure, shortened: as §1

YES1 = YES1 (Homo sapiens, UniProt P07947); experiment: Kinase panel (140 human kinases)
Chain of YES1 (P07947 whole entry): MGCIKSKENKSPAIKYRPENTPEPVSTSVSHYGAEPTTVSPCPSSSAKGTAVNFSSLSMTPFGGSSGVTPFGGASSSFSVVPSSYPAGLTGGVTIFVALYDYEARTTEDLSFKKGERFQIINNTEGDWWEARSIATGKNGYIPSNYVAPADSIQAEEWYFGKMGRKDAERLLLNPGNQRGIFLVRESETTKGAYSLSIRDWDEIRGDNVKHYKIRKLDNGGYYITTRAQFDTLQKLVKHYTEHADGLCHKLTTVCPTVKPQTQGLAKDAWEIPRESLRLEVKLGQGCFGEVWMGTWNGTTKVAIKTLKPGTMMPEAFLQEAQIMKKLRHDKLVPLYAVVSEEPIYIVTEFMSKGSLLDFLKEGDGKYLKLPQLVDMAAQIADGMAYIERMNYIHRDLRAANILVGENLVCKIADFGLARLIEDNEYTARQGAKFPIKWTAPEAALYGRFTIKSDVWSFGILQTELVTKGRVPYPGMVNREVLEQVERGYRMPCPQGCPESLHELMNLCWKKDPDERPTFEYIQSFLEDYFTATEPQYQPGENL
Procedure, shortened: as §1

SmMLCK = SmMLCK (Homo sapiens, UniProt Q15746); experiment: Kinase panel (140 human kinases)
Chain of SmMLCK (Q15746 923-1914): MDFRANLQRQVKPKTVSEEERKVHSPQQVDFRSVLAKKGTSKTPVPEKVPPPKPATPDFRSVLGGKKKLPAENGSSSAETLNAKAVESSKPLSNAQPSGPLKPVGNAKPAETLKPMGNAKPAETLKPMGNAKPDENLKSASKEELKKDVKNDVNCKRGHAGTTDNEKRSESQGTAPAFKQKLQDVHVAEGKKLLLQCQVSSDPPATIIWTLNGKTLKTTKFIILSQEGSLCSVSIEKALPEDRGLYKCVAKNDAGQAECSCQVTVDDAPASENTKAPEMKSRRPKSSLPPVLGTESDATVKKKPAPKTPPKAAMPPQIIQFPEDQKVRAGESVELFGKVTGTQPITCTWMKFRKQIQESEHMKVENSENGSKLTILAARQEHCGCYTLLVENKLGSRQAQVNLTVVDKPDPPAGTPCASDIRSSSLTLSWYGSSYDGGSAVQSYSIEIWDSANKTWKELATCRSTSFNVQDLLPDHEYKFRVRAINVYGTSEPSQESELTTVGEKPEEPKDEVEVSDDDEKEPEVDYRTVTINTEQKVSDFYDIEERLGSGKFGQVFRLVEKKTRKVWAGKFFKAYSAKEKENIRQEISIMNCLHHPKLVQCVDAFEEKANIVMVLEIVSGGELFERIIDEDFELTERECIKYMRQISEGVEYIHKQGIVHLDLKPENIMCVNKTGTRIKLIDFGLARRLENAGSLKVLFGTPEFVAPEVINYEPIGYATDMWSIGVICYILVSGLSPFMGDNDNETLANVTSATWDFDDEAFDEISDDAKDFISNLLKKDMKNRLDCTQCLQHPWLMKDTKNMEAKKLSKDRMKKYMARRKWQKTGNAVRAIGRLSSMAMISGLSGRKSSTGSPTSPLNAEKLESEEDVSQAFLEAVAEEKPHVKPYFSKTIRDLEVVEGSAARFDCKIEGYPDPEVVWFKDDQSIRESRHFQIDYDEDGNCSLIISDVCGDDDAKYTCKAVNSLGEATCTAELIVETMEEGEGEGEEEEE
Procedure, shortened: as §1

MAP4K5 = MAP4K5 (Homo sapiens, UniProt Q9Y4K4); experiment: Kinase panel (140 human kinases)
Chain of MAP4K5 (Q9Y4K4 whole entry): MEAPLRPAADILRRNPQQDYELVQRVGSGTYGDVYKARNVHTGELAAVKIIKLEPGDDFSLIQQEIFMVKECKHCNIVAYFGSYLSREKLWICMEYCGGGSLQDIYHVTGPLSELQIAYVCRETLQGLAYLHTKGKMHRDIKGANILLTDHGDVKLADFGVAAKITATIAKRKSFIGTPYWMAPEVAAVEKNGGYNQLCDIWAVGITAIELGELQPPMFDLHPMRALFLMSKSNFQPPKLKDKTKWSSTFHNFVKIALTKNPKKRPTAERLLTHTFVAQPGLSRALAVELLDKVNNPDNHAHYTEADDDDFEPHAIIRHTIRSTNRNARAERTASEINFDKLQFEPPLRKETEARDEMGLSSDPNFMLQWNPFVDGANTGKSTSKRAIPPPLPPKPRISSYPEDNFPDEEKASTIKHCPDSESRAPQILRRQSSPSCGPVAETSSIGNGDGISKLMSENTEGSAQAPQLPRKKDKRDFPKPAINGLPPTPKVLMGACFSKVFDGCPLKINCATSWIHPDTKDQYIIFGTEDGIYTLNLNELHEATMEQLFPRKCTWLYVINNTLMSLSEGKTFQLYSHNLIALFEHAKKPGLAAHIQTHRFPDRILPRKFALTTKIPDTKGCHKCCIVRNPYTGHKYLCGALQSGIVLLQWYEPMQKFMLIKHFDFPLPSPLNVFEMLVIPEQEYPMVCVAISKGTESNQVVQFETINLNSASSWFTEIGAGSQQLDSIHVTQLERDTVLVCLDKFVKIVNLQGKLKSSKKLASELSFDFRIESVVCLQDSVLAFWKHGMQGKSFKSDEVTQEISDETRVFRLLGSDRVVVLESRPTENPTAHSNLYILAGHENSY
Procedure, shortened: as §1

PIM3 = PIM3 (Homo sapiens, UniProt Q86V86); experiment: Kinase panel (140 human kinases)
Procedure, shortened: as §1

CSK = CSK (Homo sapiens, UniProt P41240); experiment: Kinase panel (140 human kinases)
Procedure, shortened: as §1

SMILES	inhibitory effect on kinase activity (CaMKK2)	remaining activity at 0.1 µM (SRPK1)	remaining activity at 0.1 µM (PAK5)	remaining activity at 0.1 µM (MKK2)	remaining activity at 0.1 µM (MAPKAP-K2)	remaining activity at 0.1 µM (EPH-B3)	remaining activity at 0.1 µM (PDGFRA)	remaining activity at 0.1 µM (EIF2AK3)	inhibition at 0.1 µM (YES1)	remaining activity at 0.1 µM (YES1)	remaining activity at 0.1 µM (SmMLCK)	remaining activity at 0.1 µM (MAP4K5)	remaining activity at 0.1 µM (PIM3)	remaining activity at 0.1 µM (CSK)	remaining activity at 1 µM (PIM3; 1 μM, cross-referenced with screen data of ref 37, read-out: activity remaining after treatment)
CC1=C(C#N)C(c2ccc3c(c2)c(NC(=O)c2ccccc2C)nn3C)C(C#N)=C(C)N1 [BAY-974, N-[5-(3,5-dicyano-2,6-dimethyl-1,4-dihydropyridin-4-yl)-1-methylindazol-3-yl]-2-methylbenzamide]	no inhibitory effect	97%	82%	95%	84%	119%	86%	113%	55 to 90%	≤ 50%	80%	89%	125%	123%	
CCc1ccccc1C(=O)Nc1n[nH]c2c(C)c(F)c(C3C(C#N)=C(C)N(C)C(C)=C3C#N)cc12 [BAY-3827, N-[5-(3,5-dicyano-1,2,6-trimethyl-4H-pyridin-4-yl)-6-fluoro-7-methyl-1H-indazol-3-yl]-2-ethylbenzamide]	no inhibitory effect	111%	100%	97%	82%	84%	82%	98%		98%	76%	97%	101%	79%	≥ 99%
